Test results published in patent publication US20110124588A1, “SYNERGISTIC ACTIVE INGREDIENT COMBINATIONS” (Bayer Cropscience AG, priority 2008, published 2011).
Read-outs that look alike come from different tables or passages of the source.

What was measured:
[1] = tested on: Phaedon cochleariae; assay: Phaedon cochleariae larvae test (sprayed cabbage leaves); format: in vivo, mustard beetle (Phaedon cochleariae) larvae; settings: for pest or weed control at 0.8 g/ha / pest or weed control at 4 g/ha / pest or weed control at 20 g/ha / pest or weed control at 0.16 g/ha / pest or weed control at 100 g/ha: Phaedon cochleariae
Method: (§1) If the actual kill rate exceeds the calculated value, the kill of the combination is superadditive, i.e. a synergistic effect is present. In this case, the actually observed kill rate must exceed the value calculated using the above formula for the expected kill rate (E).
Solvents: 78 parts by weight of acetone • • 1.5 parts by weight of dimethylformamide Emulsifier: 0.5 part by weight of alkylaryl polyglycol ether
After the desired period of time, the kill in % is determined 100% means that all beetle larvae have been killed; 0% means that none of the beetle larvae have been killed. The kill rates determined are entered into Colby's formula.

[2] = tested on: Spodoptera frugiperda; assay: Spodoptera frugiperda larvae test (sprayed cabbage leaves); format: in vivo, army worm (Spodoptera frugiperda) larvae; settings: for pest or weed control at 0.8 g/ha / pest or weed control at 4 g/ha / pest or weed control at 0.16 g/ha / pest or weed control at 20 g/ha / pest or weed control at 100 g/ha: Spodoptera frugiperda
Source text: (§2) The expected activity of a given combination of two active compounds can be calculated as follows, according to S. R. Colby, Weeds 15 (1967), 20-22:
(§3) X is the kill rate, expressed as a percentage of the untreated control, when employing active compound A at an application rate of m g/ha or in a concentration of m ppm, Y is the kill rate, expressed as a percentage of the untreated control, when employing active compound B at an application rate of n g/ha or in a concentration of n ppm and E is the kill rate, expressed as a percentage of the untreated control, when employing active compounds A and B at application rates of m and n g/ha or in a concentration of m and n ppm, then
as §1
(§4) solvents: 78 parts by weight of acetone • • 1.5 parts by weight of dimethylformamide emulsifier: 0.5 part by weight of alkylaryl polyglycol ether
(§5) To produce a suitable preparation of active compound, 1 part by weight of active compound is mixed with the stated amounts of solvents and emulsifier, and the concentrate is diluted with emulsifier-containing water to the desired concentration.
Cabbage leaves (Brassica oleracea) are treated by spraying with the active compound preparation of the desired concentration and are populated with larvae of the army worm (Spodoptera frugiperda) while the leaves are still moist.
After the desired period of time, the kill in % is determined 100% means that all caterpillars have been killed; 0% means that none of the caterpillars have been killed. The kill rates determined are entered into Colby's formula.

[3] = tested on: Tetranychus urticae; assay: Tetranychus urticae test (OP-resistant/spray treatment); format: in vivo, greenhouse red spider mite (Tetranychus urticae)
Source text: as §2, §3, §1, §4, §5
Discs of bean leaves (Phaseolus vulgaris) which are infested by all stages of the greenhouse red spider mite (Tetranychus urticae) are sprayed with an active compound preparation of the desired concentration.
After the desired period of time, the activity in % is determined 100% means that all spider mites have been killed; 0% means that none of the spider mites have been killed.

[4] = tested on: Myzus persicae; assay: Myzus persicae test (spray treatment of infested cabbage leaves); format: in vivo, green peach aphid (Myzus persicae); settings: for pest or weed control at 0.8 g/ha / pest or weed control at 4 g/ha / pest or weed control at 0.032 g/ha / pest or weed control at 0.16 g/ha: Myzus persicae
Method: as §1, §4
After the desired period of time, the kill in % is determined 100% means that all aphids have been killed; 0% means that none of the aphids have been killed. The kill rates determined are entered into Colby's formula.

[5] = single active compound, 100 g/ha, 6 d
[6] = single active compound, 4 g/ha, after 6 d
[7] = 24 h, read-out: Kill in % after 1 d
[8] = 144 h, read-out: Kill in % after 6 d
[9] = Tetranychus urticae, 144 h, read-out: Kill in % after 6 d
[10] = 144 h, single active compound, 0.8 g/ha, 6 d, read-out: Kill in % after 6 d
[11] = 144 h, single active compound, 6 d, read-out: Kill in % after 6 d
[12] = 48 h, read-out: Kill in % after 2 d
[13] = Tetranychus urticae, 48 h, read-out: Kill in % after 2 d
[14] = 144 h, single active compound, 0.16 g/ha, 6 d, read-out: Kill in % after 6 d
[15] = 48 h, single active compound, 2 d, read-out: Kill in % after 2 d
[16] = 48 h, single active compound, 0.16 g/ha, 2 d, read-out: Kill in % after 2 d
[17] = 48 h, single active compound, 0.8 g/ha, 2 d, read-out: Kill in % after 2 d
[18] = 48 h, single active compound, 100 g/ha, 2 d, read-out: Kill in % after 2 d
[19] = 144 h, single active compound, 100 g/ha, 6 d, read-out: Kill in % after 6 d
[20] = Tetranychus urticae, 48 h, single active compound, 4 g/ha, after 2 d, read-out: Kill in % after 2 d
[21] = single active compound, 0.8 g/ha, 6 d

CSC(=O)O/C(=C(/C#N)c1ccc(Cl)cc1)c1ccccc1C(F)(F)F [IKA 2002]
Kill in % after 6 d [1, 5]: 0%
Kill in % after 6 d [2, 5]: 0%
Kill in % after 6 d [3, 6]: 70%

Cc1ccc(/N=C/N(C)/C=N/c2ccc(C)cc2C)c(C)c1 [amitraz]
pest or weed control at 0.8 g/ha [4, 7]: 0%
pest or weed control at 4 g/ha [4, 8]: 0%
pest or weed control at 20 g/ha [3, 9]: 80%

Cc1c(COC(=O)C2C(/C=C(\Cl)C(F)(F)F)C2(C)C)cccc1-c1ccccc1 (stereo not drawn) [bifenthrin]
pest or weed control at 0.032 g/ha [4, 8]: 0%
pest or weed control at 0.8 g/ha [1, 10]: 50%
pest or weed control at 0.8 g/ha [2, 8]: 0%
pest or weed control at 4 g/ha [3, 9]: 40%

CCOCn1c(-c2ccc(Cl)cc2)c(C#N)c(Br)c1C(F)(F)F [chlorfenapyr]
pest or weed control at 0.8 g/ha [1, 10]: 0%
pest or weed control at 4 g/ha [1, 11]: 83%
pest or weed control at 4 g/ha [2, 12]: 67%
pest or weed control at 4 g/ha [3, 13]: 50%

CC(c1ccc(Cl)nc1)S(C)(=O)=NC#N (stereo not drawn) [compound (I-5)]
pest or weed control at 0.16 g/ha ([4]; 24 h, single active compound, 0.16 g/ha, 1 d, read-out: Kill in % after 1 d): 0%
pest or weed control at 0.8 g/ha ([4]; 24 h, single active compound, 0.8 g/ha, 1 d, read-out: Kill in % after 1 d): 0%
pest or weed control at 0.16 g/ha [4, 14]: 0%
pest or weed control at 0.8 g/ha [4, 10]: 20%
pest or weed control at 4 g/ha [1, 15]: 0%
pest or weed control at 20 g/ha [1, 15]: 0%
pest or weed control at 0.8 g/ha [1, 10]: 0%
pest or weed control at 4 g/ha [1, 11]: 0%
pest or weed control at 20 g/ha [1, 11]: 0%
pest or weed control at 0.16 g/ha [2, 16]: 0%
pest or weed control at 0.8 g/ha [2, 17]: 0%
pest or weed control at 20 g/ha ([2]; 48 h, single active compound, 20 g/ha, 2 d, read-out: Kill in % after 2 d): 0%
pest or weed control at 100 g/ha [2, 18]: 0%
pest or weed control at 0.8 g/ha [2, 10]: 0%
pest or weed control at 4 g/ha ([2]; 144 h, single active compound, 4 g/ha, 6 d, read-out: Kill in % after 6 d): 0%
pest or weed control at 20 g/ha ([2]; 144 h, single active compound, 20 g/ha, 6 d, read-out: Kill in % after 6 d): 0%
pest or weed control at 100 g/ha [2, 19]: 0%
pest or weed control at 0.8 g/ha ([3]; Tetranychus urticae, 48 h, single active compound, 0.8 g/ha, after 2 d, read-out: Kill in % after 2 d): 0%
pest or weed control at 4 g/ha [3, 20]: 0%
pest or weed control at 4 g/ha ([3]; Tetranychus urticae, 144 h, single active compound, 4 g/ha, after 6 d, read-out: Kill in % after 6 d): 0%
pest or weed control at 20 g/ha ([3]; Tetranychus urticae, 144 h, single active compound, 20 g/ha, after 6 d, read-out: Kill in % after 6 d): 0%
pest or weed control at 100 g/ha ([3]; Tetranychus urticae, 144 h, single active compound, 100 g/ha, after 6 d, read-out: Kill in % after 6 d): 0%

CC(c1ccc(C(F)(F)F)nc1)S(C)(=O)=NC#N (stereo not drawn) [compound (I-8)]
pest or weed control at 0.16 g/ha [4, 7]: 0%
pest or weed control at 0.16 g/ha [4, 8]: 60%
pest or weed control at 0.16 g/ha [1, 16]: 0%
pest or weed control at 0.8 g/ha [1, 17]: 0%
pest or weed control at 4 g/ha [1, 15]: 0%
pest or weed control at 20 g/ha [1, 15]: 0%
pest or weed control at 100 g/ha [1, 18]: 67%
pest or weed control at 0.16 g/ha [1, 14]: 0%
pest or weed control at 0.8 g/ha [1, 10]: 0%
pest or weed control at 4 g/ha [1, 11]: 0%
pest or weed control at 20 g/ha [1, 11]: 17%
pest or weed control at 100 g/ha [1, 19]: 67%
pest or weed control at 0.16 g/ha [2, 12]: 0%
pest or weed control at 0.8 g/ha [2, 12]: 0%
pest or weed control at 20 g/ha [2, 12]: 0%
pest or weed control at 0.16 g/ha [2, 8]: 0%
pest or weed control at 0.8 g/ha [2, 8]: 0%
pest or weed control at 4 g/ha [2, 8]: 0%
pest or weed control at 20 g/ha [2, 8]: 0%
pest or weed control at 0.8 g/ha [3, 13]: 0%
pest or weed control at 4 g/ha [3, 13]: 0%
pest or weed control at 0.16 g/ha [3, 9]: 0%
pest or weed control at 0.8 g/ha [3, 9]: 0%
pest or weed control at 4 g/ha [3, 9]: 0%
pest or weed control at 20 g/ha [3, 9]: 0%
pest or weed control at 100 g/ha [3, 9]: 0%

Cc1nn(C)c(/C(OC(=O)C(C)(C)C)=C(\C#N)c2ccc(C(C)(C)C)cc2)c1C [cyenopyrafen, (1E)-2-cyano-2-[4-(1,1-dimethylethyl)phenyl]-1-(1,3,4-trimethyl-1H-pyrazol-5-yl)ethenyl 2,2-dimethylpropanoate]
pest or weed control at 100 g/ha [1, 19]: 0%
pest or weed control at 0.8 g/ha [3, 13]: 70%

COCCOC(=O)C(C#N)(C(=O)c1ccccc1C(F)(F)F)c1ccc(C(C)(C)C)cc1 (stereo not drawn) [cyflumetofen, 2-methoxyethyl alpha-cyano-alpha-[4-(1,1-dimethylethyl)phenyl]-beta-oxo-2-(trifluoromethyl)benzenepropanoate]
pest or weed control at 100 g/ha [1, 19]: 0%
pest or weed control at 0.8 g/ha [3, 13]: 50%

CC1(C)[C@H](C(=O)O[C@H](C#N)c2cccc(Oc3ccccc3)c2)[C@@H]1C=C(Br)Br [deltamethrin]
pest or weed control at 0.032 g/ha [4, 7]: 0%
pest or weed control at 0.8 g/ha [1, 17]: 67%
pest or weed control at 0.16 g/ha [1, 14]: 50%
pest or weed control at 0.16 g/ha [2, 8]: 17%
pest or weed control at 4 g/ha [3, 9]: 0%

CC(C)c1cc(Oc2ccccc2)cc(C(C)C)c1NC(=S)NC(C)(C)C [diafenthiuron]
pest or weed control at 20 g/ha [1, 11]: 0%
pest or weed control at 4 g/ha [3, 20]: 0%

CN/C(=N\[N+](=O)[O-])NCC1CCOC1 (stereo not drawn) [dinotefuran]
pest or weed control at 0.8 g/ha [4, 7]: 0%
pest or weed control at 0.8 g/ha [1, 8]: 0%
pest or weed control at 20 g/ha [3, 13]: 0%

Cc1nn(C)c(Oc2ccccc2)c1C=NOCc1ccc(C(=O)OC(C)(C)C)cc1 [fenpyroximate]
pest or weed control at 0.8 g/ha [4, 8]: 0%
pest or weed control at 20 g/ha [1, 15]: 0%
pest or weed control at 100 g/ha [2, 8]: 50%
pest or weed control at 4 g/ha [3, 9]: 60%

O=C(NC(=O)c1c(F)cccc1F)Nc1ccc(OC(F)(F)C(F)OC(F)(F)F)c(Cl)c1 (stereo not drawn) [novaluron]
pest or weed control at 4 g/ha [4, 8]: 0%
pest or weed control at 0.8 g/ha [2, 12]: 33%
pest or weed control at 20 g/ha [3, 13]: 0%

CC1=NNC(=O)N(/N=C/c2cccnc2)C1 [pymetrozine]
pest or weed control at 0.16 g/ha [4, 8]: 0%
pest or weed control at 0.8 g/ha [4, 8]: 60%
pest or weed control at 100 g/ha [3, 9]: 0%

CCc1nn(C)c(C(=O)NCc2ccc(C(C)(C)C)cc2)c1Cl [tebufenpyrad]
pest or weed control at 0.16 g/ha [4, 8]: 0%
pest or weed control at 0.8 g/ha [4, 8]: 0%
pest or weed control at 20 g/ha [1, 11]: 0%
pest or weed control at 4 g/ha [3, 9]: 40%

abamectin
Kill in % after 6 d ([4]; single active compound, 0.032 g/ha, 6 d): 0%
Kill in % after 6 d ([1]; single active compound, 0.16 g/ha, 6 d): 0%
Kill in % after 2 d ([3]; single active compound, 0.032 g/ha, after 2 d): 0%

emamectin benzoate
Kill in % after 6 d ([4]; single active compound, 0.0064 g/ha, 6 d): 0%
Kill in % after 2 d ([2]; single active compound, 0.8 g/ha, 2 d): 83%
Kill in % after 6 d ([3]; single active compound, 0.032 g/ha, after 6 d): 0%

spinetoram
Kill in % after 6 d [4, 21]: 0%
Kill in % after 6 d [1, 21]: 50%
Kill in % after 2 d ([2]; single active compound, 0.16 g/ha, 2 d): 50%
Kill in % after 2 d ([3]; single active compound, 4 g/ha, after 2 d): 20%

spinosad
Kill in % after 6 d [2, 21]: 50%
Kill in % after 6 d [3, 6]: 20%
